# Assay results: PMC8910920 (International Journal of Molecular Sciences, 2022)
# Tests used:
# hTRPM8 = molecular target: T1, hTRPM8 (Homo sapiens, UniProt Q7Z2W7); experiment: Ca2+ microfluorography assay, HEK293 cells expressing hTRPM8; assay type: cell-based; conditions: HEK293-hTRPM8, 100 μM menthol
# T1 construct: expressed in transfected cells
# Method: This represents a similar activity as β–lactam 2 and a somewhat higher potency than the model TRPM8 antagonists AMTB.
# To measure the effect of the compounds against TRPM8 activity we used microfluorometry-based calcium flux assays with Fluo-4 NW Ca^2+ dye and fluorescence as described in [30]. Briefly, human embryonic kidney cell line (HEK293) cells stably transfected with rTRPM8 or hTRPM8 were seeded in 96-well plates at a cell density of 30,000 cells. After 2 days the medium was replaced with 100 μL of the dye, Fluo-4 NW, loading solution supplemented with probenecid 2.5 mM and incubated 1 h at 37 °C. The TRPM8 activity was measured using POLASTAR plate reader (BMG Labtech) setting the excitation wavelength at 485 nm and the emission wavelength at 520 nm. The baseline fluorescence was recorded for 3 cycles before the addition of vehicle compound at different concentrations and the antagonist, 10 μM AMTB. Fluorescence intensity was recorded during 7 more cycles and 100 μM menthol was added. Fluorescence intensity was recorded during 10 more cycles.
# Data analysis: The Z-factor was calculated in each assay using the following equation: (3 × (SDmax + SDmin))/(Mean max-Mean min). In all the experiments, the Z-factor was ≥0.5. The effect of the compounds against TRPM8 activity was determined by normalizing their effect on the maximum fluorescence observed after application of 100 μM menthol. […]
# CACO-2 cell monolayers = experiment: Caco-2 permeability; assay type: in vitro ADME
# Method: These studies were subcontracted to Eurofins-CEREP or Eurofins-PANLABS. Briefly, agonists and antagonist assays were performed in cell cultures overexpressing the corresponding channel (CHO: TRPV1 and TRPA1; HEK293: TRPV3 and ASIC3). In vitro pharmacology, cellular channel functional assays: the compound was prepared in assay buffer to the final concentration, 10 μM. The compound wells, reference agonist and background vehicle controls were prepared in DMSO at 0.3%. The reference agonist for each Ion Channel assayed was prepared in a similar manner to serve as the assay control. The reference agonist for each Ion Channel was included at Emax (the concentration where the reference agonist elicited a maximal response). The agonist assay was conducted on fluorimeter instruments where the test compound, vehicle controls, and reference agonist were added to the assay plate after a fluorescence baseline was established. The agonist assay was used to assess each compound’s ability to activate each Ion Channel assayed. For the antagonist assay, the compound was pre-incubated for five minutes at room temperature, and then challenged with the EC80 concentration of the reference agonist after establishment of a fluorescence baseline. Vehicle controls and EC80 concentration of reference agonist were added to appropriate wells. The antagonist assay was used to assess each compound’s ability to inhibit activation by the corresponding Ion Channel agonist. ASIC3 ionflux antagonist assay: all recordings were obtained from a holding potential of -60 mV. The compound addition sequence was as follows: one addition of pH5.5 buffer was added to establish the baseline response, the test concentration of compound was applied for 30 s, followed by the addition of pH5.5 of compound for 2 s. Binding assays were performed in CHO cell cultures overexpressing human CGRPR, CB2 and M2 receptors. RGM8-51 (10 μM) was tested, and reference compounds used as control agonists and antagonists are detailed in Table 2, footnote. Binding assay results are expressed as a percent of control specific binding. […] Aqueous solubility (μM) was determined by comparing the peak area of the principal peak in a calibration standard (200 μM) containing organic solvent (methanol/water, 60/40, v/v) with the peak area of the corresponding peak in a buffer sample. Partition coefficient: the total amount of compound was determined as the peak area of the principal peak in a calibration standard (100 μM) containing organic solvent (methanol/water, 60/40, v/v). The amount of compound in buffer was determined as the combined, volume-corrected, and weighted areas of the corresponding peaks in the aqueous phases of three organic-aqueous samples of different composition. An automated weighting system was used to ensure the preferred use of raw data from those samples with well quantifiable peak signals. The amount of compound in organic phase was calculated by subtraction. Subsequently, Log D was calculated as the Log10 of the amount of compound in the organic phase divided by the amount of compound in the aqueous phase. […] Permeability was measured in CACO-2 monolayers. Percentage of compounds in the receptors wells was measured using HPLC. […] In vitro metabolism was measured in human liver microsomes. […] The apparent intrinsic clearance (CLint, in μL/min/mg) was calculated from the half-life time.
# T1 sequence (Q7Z2W7 whole entry): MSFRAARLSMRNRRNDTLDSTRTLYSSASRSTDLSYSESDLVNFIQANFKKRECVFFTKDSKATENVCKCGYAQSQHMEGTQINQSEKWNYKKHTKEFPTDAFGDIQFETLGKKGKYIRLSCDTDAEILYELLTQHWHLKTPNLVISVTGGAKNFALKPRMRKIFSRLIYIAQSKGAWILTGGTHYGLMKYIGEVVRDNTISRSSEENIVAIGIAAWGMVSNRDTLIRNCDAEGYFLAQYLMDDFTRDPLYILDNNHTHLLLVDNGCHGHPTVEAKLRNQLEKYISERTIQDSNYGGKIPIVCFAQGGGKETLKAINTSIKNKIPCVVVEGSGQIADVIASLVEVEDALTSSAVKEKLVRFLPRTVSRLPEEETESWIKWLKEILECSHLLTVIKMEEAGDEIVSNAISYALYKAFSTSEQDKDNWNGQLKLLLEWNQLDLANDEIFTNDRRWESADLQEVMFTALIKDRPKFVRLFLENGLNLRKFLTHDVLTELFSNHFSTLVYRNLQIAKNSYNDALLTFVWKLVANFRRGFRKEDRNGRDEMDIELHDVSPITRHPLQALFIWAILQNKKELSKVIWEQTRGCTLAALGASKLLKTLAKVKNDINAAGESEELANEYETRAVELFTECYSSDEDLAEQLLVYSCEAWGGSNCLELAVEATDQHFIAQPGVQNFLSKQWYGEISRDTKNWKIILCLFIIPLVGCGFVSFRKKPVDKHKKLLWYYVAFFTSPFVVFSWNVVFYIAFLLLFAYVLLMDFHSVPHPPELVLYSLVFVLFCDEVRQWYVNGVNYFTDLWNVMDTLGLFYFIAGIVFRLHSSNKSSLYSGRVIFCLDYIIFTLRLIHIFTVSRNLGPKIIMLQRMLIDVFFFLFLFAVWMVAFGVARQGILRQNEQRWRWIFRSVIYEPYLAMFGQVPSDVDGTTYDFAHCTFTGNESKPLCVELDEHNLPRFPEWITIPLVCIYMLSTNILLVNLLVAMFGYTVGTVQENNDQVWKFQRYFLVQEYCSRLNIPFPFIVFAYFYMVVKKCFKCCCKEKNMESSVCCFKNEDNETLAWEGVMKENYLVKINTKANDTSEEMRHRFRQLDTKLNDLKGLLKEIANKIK
smiles,measurement,setting,value
"C[C@@H]1C(=O)N(C[C@H](Cc2ccccc2)N(Cc2ccccc2)Cc2ccccc2)[C@]1(Cc1ccccc1)C(=O)OC(C)(C)C [RGM8-51, 4(S)-Benzyl-3S-methyl-4-(tert-butoxy)carbonyl-1-[(2′S-dibenzylamino-3′-phenyl)prop-1′-yl]-2-oxoazetidine]",IC50,hTRPM8,1.74 ± 1.19 µM
same,permeation of CACO-2 cell monolayers,CACO-2 cell monolayers,not able to permeate
same,Permeability B-A (%),CACO-2 cell monolayers; CACO-2 cell monolayer,0%
same,Permeability A-B (%),"CACO-2 cell monolayers; CACO-2 cell monolayer, percentage of compound in the acceptor cell",0%
